Tests used:
rat GnRH receptor = molecular target: T1, rat GnRH receptor (Rattus norvegicus, UniProt P30969); assay: Radioligand binding: inhibition of 125I-GnRH-A binding to rat GnRH receptor (rat pituitary membranes); settings: read-out: Ki (nM), Inhibition Binding of 125I-GnRH-A to GnRH Receptors
T1 construct: or rat pituitaries (Pel Freez Biologicals, Rogers, Ark.) were homogenized; tissue Pel Freez Biologicals; host or cells: rat pituitaries (membrane preparation)
T1 sequence (P30969 1-327): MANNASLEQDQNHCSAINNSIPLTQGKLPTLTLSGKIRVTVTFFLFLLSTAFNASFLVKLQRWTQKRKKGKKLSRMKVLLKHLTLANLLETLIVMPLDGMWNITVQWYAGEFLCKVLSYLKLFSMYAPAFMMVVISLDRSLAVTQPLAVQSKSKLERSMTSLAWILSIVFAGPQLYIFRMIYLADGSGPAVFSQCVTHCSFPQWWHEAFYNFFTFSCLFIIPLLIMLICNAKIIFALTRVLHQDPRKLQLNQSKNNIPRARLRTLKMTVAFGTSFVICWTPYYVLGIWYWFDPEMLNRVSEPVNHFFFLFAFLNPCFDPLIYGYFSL
Method: (§1) HEK 293 cells containing mouse or human receptors, or rat pituitaries (Pel Freez Biologicals, Rogers, Ark.) were homogenized in buffer A containing: 50 mM Tris (pH 7.4), 0.32 M sucrose, 2 mM EGTA, 1 mM PMSF, 5 μg/ml aprotinen, 5 μg/ml Pepstatin A, and 1 μg/ml leupeptin. Homogenized cells were centrifuged at 4° C. at 20,000×g for 25 minutes, re-suspended in buffer A and re-centrifuged at 4° C. at 20,000×g for an additional 25 minutes. Total membrane protein was determined with a BCA kit (Pierce, Rockford, Ill.). Membranes were stored at −70° C. at a final membrane protein concentration of approximately 5 mg/ml.
(§2) The radioiodinated agonist analog of GnRH, [des-Gly^10,D-Ala^6]GnRH ethylamide (^125I-GnRH-A), was used as the radioligand. […] The reaction mixture was vortexed and incubated for 1 minute at room temperature. After one minute, the mixture was vortexed and allowed to incubate for an additional minute. 2 ml of 0.5 M acetic acid/1% BSA was added to the reaction tube and the mixture was added to a C18 Sep-Pak cartridge. The cartridge was washed with subsequent washes of 5 ml H2O and 5 ml 0.5 M acetic acid and then eluted with 5×1 ml of 60% CH3CN/40% 0.5 M acetic acid. The eluate was diluted with 3× volume of HPLC buffer A (0.1% TFA in H2O) and loaded onto a C18 column. The iodinated product was eluted over 20-25 min with a gradient of 25-100% CH3CN containing 0.1% TFA. The radioactive fractions (750 μl/fraction) were collected into clean polypropylene tubes containing 100 μl of 10% BSA. Fractions were assessed for biological activity by radioligand binding. Specific activity of the radioligand was approximately 2200 Ci/mmol.
(§3) Membranes were diluted to 0.01-0.5 mg/ml (depending upon the species of receptor) with assay buffer containing 50 mM HEPES (pH 7.4), 1 mM EDTA, 2.5 mM MgCl2, and 0.1% BSA. Membranes (diluted to utilize similar receptor numbers between assays) were incubated with approximately 0.04-0.06 nM ^125I-GnRH-A in the presence or absence of competing agents (0.1-10,000 nM) in a total volume of 200 μl in 96-well polypropylene plates for 1 hour at room temperature. Assays were stopped by rapid filtration onto 96-well GF/C filters soaked in 0.1% polyethylenimine (PEI) utilizing a Packard 96-well cell harvester. Filters were washed three times with ice-cold PBS (50 mM NaPO4, 0.9% NaCl, 2 mM MgCl2, and 0.02% NaN3, pH 7.4). 35 μl of scintillation cocktail was added to each filter well and filters were counted on a Packard Topcount. Control dose-response curves were generated to GnRH (0.1 nM-100 nM) in each competition binding experiment. Ki values were calculated from IC50 values according to Cheng et al., Biochemical Pharmacol. 22: 3099-3108, 1973. [formula]

human GnRH receptors = molecular target: T2, human GnRH receptors (Homo sapiens, UniProt P30968); assay: Radioligand binding: inhibition of 125I-GnRH-A binding to human GnRH receptor membranes; settings: HEK 293 cell membranes
T2 construct: expressed in transfected cells; host or cells: HEK 293 cells, stably transfected; membranes
T2 sequence (P30968 1-328): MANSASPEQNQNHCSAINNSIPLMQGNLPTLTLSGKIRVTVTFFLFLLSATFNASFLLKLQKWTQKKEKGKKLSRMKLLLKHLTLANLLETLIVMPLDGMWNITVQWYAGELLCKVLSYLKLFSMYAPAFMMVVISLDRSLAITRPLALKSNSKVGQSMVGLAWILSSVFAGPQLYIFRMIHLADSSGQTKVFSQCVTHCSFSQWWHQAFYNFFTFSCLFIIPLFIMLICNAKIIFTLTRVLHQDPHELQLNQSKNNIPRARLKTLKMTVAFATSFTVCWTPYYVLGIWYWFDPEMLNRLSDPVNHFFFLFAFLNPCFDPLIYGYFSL
Method: HEK 293 cells stably transfected with mouse or human GnRH receptors as described above were grown in Dulbecco's high-glucose, modified Eagle's medium (DMEM) supplemented with 0.2% G418, 10% fetal bovine serum (FBS) and 100 U/mL penicillin/streptomycin. GH3 cells stably transfected with the rat GnRH receptor (GGH3) were provided by Dr. William Chin (Harvard Medical School, Boston, Mass.). These cells have been extensively characterized previously (Kaiser et al., 1997). The cells were grown in low glucose DMEM containing: 100U/mL penicillin/streptomycin, 0.6% G418 and 10% heat-inactivated FBS.
as §1, §2, §3

Ki (rat GnRH receptor) [nM] | Ki (human GnRH receptors) [nM] | SMILES
9.5 | 18 | COCCOc1nc(OC)c(NC(=O)c2ccc(Cc3cc4c(cc3C)C(C)(C)OC4(C)C)o2)c(OC)n1 [Example A4, 5-(1,1,3,3,6-Pentamethyl-1,3-dihydro-isobenzofuran-5-ylmethyl)-furan-2-carboxylic acid [4,6-dimethoxy-2-(2-methoxy-ethoxy)-pyrimidin-5-yl]-amide]
0.64 | 1.6 | COc1nc(NCCSCCO)nc(OC)c1NC(=O)c1ccc(Cc2cc3c(cc2C)C(C)(C)OC3(C)C)o1 [Example D42, N-[2-({2-[(2-Hydroxyethyl)thio]ethyl}amino)-4,6-dimethoxypyrimidin-5-yl]-5-[(1,1,3,3,6-pentamethyl-1,3-dihydro-2-benzofuran-5-yl)methyl]-2-furamide]
4.4 | 36 | COc1nc(NCC(c2ccc[nH]2)C(F)(F)F)nc(OC)c1NC(=O)c1ccc(Cc2cc3c(cc2C)C(C)(C)OC3(C)C)o1 (stereo not shown) [Example D57, N-(4,6-Dimethoxy-2-{[3,3,3-trifluoro-2-(1H-pyrrol-2-yl)propyl]amino}pyrimidin-5-yl)-5-[(1,1,3,3,6-pentamethyl-1,3-dihydro-2-benzofuran-5-yl)methyl]-2-furamide]
15 | 12 | COc1nc(N(C)CCCCCCO)nc(OC)c1NC(=O)c1ccc(Cc2cc3c(cc2C)C(C)(C)OC3(C)C)o1 [Example D41, N-{2-[(6-Hydroxyhexyl)(methyl)amino]-4,6-dimethoxypyrimidin-5-yl}-5-[(1,1,3,3,6-pentamethyl-1,3-dihydro-2-benzofuran-5-yl)methyl]-2-furamide]
15 | 22 | COc1nc(N(C)Cc2cccnc2)nc(OC)c1NC(=O)c1ccc(Cc2cc3c(cc2C)C(C)(C)OC3(C)C)o1 [Example D38, N-{4,6-Dimethoxy-2-[methyl(pyridin-3-ylmethyl)amino]pyrimidin-5-yl}-5-[(1,1,3,3,6-pentamethyl-1,3-dihydro-2-benzofuran-5-yl)methyl]-2-furamide]
30 | 27 | COc1nc(N2CCC3CNC(=O)C3C2)nc(OC)c1NC(=O)c1ccc(Cc2cc3c(cc2C)C(C)(C)OC3(C)C)o1 (stereo not shown) [Example D40, N-[4,6-Dimethoxy-2-(3-oxooctahydro-5H-pyrrolo[3,4-c]pyridin-5-yl)pyrimidin-5-yl]-5-[(1,1,3,3,6-pentamethyl-1,3-dihydro-2-benzofuran-5-yl)methyl]-2-furamide]
0.32 | 1 | CNCCCNc1nc(OC)c(NC(=O)c2ccc(Cc3cc4c(cc3C)C(C)(C)OC4(C)C)o2)c(OC)n1 [Example D60, N-(4,6-Dimethoxy-2-{[3-(methylamino)propyl]amino}-5-pyrimidinyl)-5-[(1,1,3,3,6-pentamethyl-1,3-dihydro-2-benzofuran-5-yl)methyl]-2-furamide]
16 | 38 | COc1nc(NC2CCN(C)CC2)nc(OC)c1NC(=O)c1ccc(Cc2cc3c(cc2C)C(C)(C)OC3(C)C)o1 [Example D13, N-{4,6-Dimethoxy-2-[(1-methylpiperidin-4-yl)amino]pyrimidin-5-yl}-5-[(1,1,3,3,6-pentamethyl-1,3-dihydro-2-benzofuran-5-yl)methyl]-2-furamide]
3.1 | 4.8 | COc1nc(NCCN(C)CCCCCO)nc(OC)c1NC(=O)c1ccc(Cc2cc3c(cc2C)C(C)(C)OC3(C)C)o1 [Example D58, N-[2-({2-[(5-Hydroxypentyl)(methyl)amino]ethyl}amino)-4,6-dimethoxypyrimidin-5-yl]-5-[(1,1,3,3,6-pentamethyl-1,3-dihydro-2-benzofuran-5-yl)methyl]-2-furamide]
22 | 36 | COc1nc(NCCCN(C)C)nc(OC)c1NC(=O)c1ccc(Cc2c(C)cc3c(c2C)C(C)(C)CCO3)o1 [Example I3, N-(2-{[3-(Dimethylamino)propyl]amino}-4,6-dimethoxypyrimidin-5-yl)-5-[(4,4,5,7-tetramethyl-3,4-dihydro-2H-chromen-6-yl)methyl]-2-furamide]
1.1 | 3 | COCCNc1nc(OC)c(NC(=O)c2ccc(Cc3cc4c(cc3C)C(C)(C)OC4(C)C)o2)c(OC)n1 [Example D74]
45 | 36 | CCOCCN(CCOCC)c1nc(OC)c(NC(=O)c2ccc(Cc3cc4c(cc3C)C(C)(C)OC4(C)C)o2)c(OC)n1 [Example D49, N-{2-[Bis(2-ethoxyethyl)amino]-4,6-dimethoxypyrimidin-5-yl}-5-[(1,1,3,3,6-pentamethyl-1,3-dihydro-2-benzofuran-5-yl)methyl]-2-furamide]
0.5 | 1 | CNCCNc1nc(OC)c(NC(=O)c2ccc(Cc3cc4c(cc3C)C(C)(C)OC4(C)C)o2)c(OC)n1 [Example D20, N-(4,6-Dimethoxy-2-{[2-(methylamino)ethyl]amino}-pyrimidin-5-yl}-5-[(1,1,3,3,6-pentamethyl-1,3-dihydro-2-benzofuran-5-yl)methyl]-2-furamide]
16 | 13 | COc1nc(NCCCN(C)C)nc(OC)c1NC(=O)c1ccc(Cc2c(C)cc(C)c3c2OCC3(C)C)o1 [Example H4, N-(2-{[3-(Dimethylamino)propyl]amino}-4,6-dimethoxypyrimidin-5-yl)-5-[(3,3,4,6-tetramethyl-2,3-dihydro-1-benzofuran-7-yl)methyl]-2-furamide]
16 | 24 | COc1nc(NCCCN2CCN(C)CC2)nc(OC)c1NC(=O)c1ccc(Cc2c(C)cc3c(c2C)C(C)(C)CCO3)o1 [Example I2, N-(4,6-Dimethoxy-2-{[3-(4-methylpiperazin-1-yl)propyl]amino}pyrimidin-5-yl)-5-[(4,4,5,7-tetramethyl-3,4-dihydro-2H-chromen-6-yl)methyl]-2-furamide]
2.4 | 3.5 | COc1nc(N2CCN(CCN)CC2)nc(OC)c1NC(=O)c1ccc(Cc2cc3c(cc2C)C(C)(C)OC3(C)C)o1 [Example D15, N-{2-[4-(2-Aminoethyl)piperazin-1-yl]-4,6-dimethoxypyrimidin-5-yl}-5-[(1,1,3,3,6-pentamethyl-1,3-dihydro-2-benzofuran-5-yl)methyl]-2-furamide]
26 | 27 | COc1nc(NCCCN2CCOCC2)nc(OC)c1NC(=O)c1ccc(Cc2c(C)cc3c(c2C)C(C)(C)CCO3)o1 [Example I1, N-{4,6-Dimethoxy-2-[(3-morpholin-4-ylpropyl)amino]pyrimidin-5-yl}-5-[(4,4,5,7-tetramethyl-3,4-dihydro-2H-chromen-6-yl)methyl]-2-furamide]
